For the assay, the target named is TNAP (Homo sapiens (Human), UniProt P05186). Kind of assay: TNAP (PPi) inhibition assay, pyrophosphate as substrate. The format is biochemical. In short, it runs like this:
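Secreted epitope-tagged human TNAP from transiently transfected COS-1 cells, dialyzed to remove phosphate. Inhibitors tested kinetically at pH 7.4 with PPi as substrate; released phosphate quantified colorimetrically with Biomol Green reagent.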

Structures are written as SMILES.

A word on the IC50: it is the concentration that inhibits the measured activity by half. Lower therefore signals greater potency. For the compound `COc1ccc(OC)c(S(=O)(=O)Nc2cncc(C(=O)NC3CCCCC3)c2)c1` [Example IV-39, 5-(2,5-Dimethoxyphenylsulfonamido)-N-cyclohexylnicotinamide], the half-inhibitory concentration (IC50) was below 100 nM. `COc1ccc(OC)c(S(=O)(=O)Nc2cncc(C(=O)Nc3ccccc3)c2)c1` [Example IV-40, 5-(2,5-Dimethoxyphenylsulfonamido)-N-phenylnicotinamide] gave an IC50 of 100 to 1000 nM. For `COCCNC(=O)c1cncc(NS(=O)(=O)c2cc(OC)ccc2OC)c1` [Example IV-41, 5-(2,5-Dimethoxyphenylsulfonamido)-N-(2-methoxyethyl)nicotinamide] the value was 100 to 1000 nM; for `COc1ccc(OC)c(S(=O)(=O)Nc2cncc(C(=O)NCCN(C)C)c2)c1` [Example IV-42, 5-(2,5-Dimethoxyphenylsulfonamido)-N-(2-(dimethylamino)ethyl)nicotinamide], 100 to 1000 nM; for `COc1ccc(OC)c(S(=O)(=O)Nc2cncc(C(=O)N3CCOCC3)c2)c1` [Example IV-43, 2,5-Dimethoxy-N-(5-(morpholine-4-carbonyl)pyridin-3-yl)benzenesulfonamide], 100 to 1000 nM.

Take `COc1ccc(OC)c(S(=O)(=O)Nc2cncc(C(=O)N3CCN(C)CC3)c2)c1` [Example IV-44, 2,5-Dimethoxy-N-(5-(4-methylpiperazine-1-carbonyl)pyridin-3-yl)benzenesulfonamide]: the IC50 is below 100 nM. In turn, `COc1ccc(Br)cc1S(=O)(=O)Nc1cnc2ccc(O)cc2c1` [Example IX-1, 5-Bromo-N-(6-hydroxyquinolin-3-yl)-2-methoxybenzenesulfonamide] displayed an IC50 below 100 nM. For `COc1ccc2ncc(NS(=O)(=O)c3cc(Br)ccc3OC)cc2c1` [Example IX-2, 5-Bromo-2-methoxy-N-(6-methoxyquinolin-3-yl)benzenesulfonamide] the value was below 100 nM; for `COc1ccc(OC)c(S(=O)(=O)Nc2cnc3ccc(O)cc3c2)c1` [Example IX-3, N-(6-Hydroxyquinolin-3-yl)-2,5-dimethoxybenzenesulfonamide], below 100 nM; for `COC(=O)c1ccc2ncc(NS(=O)(=O)c3cc(Br)ccc3OC)cc2c1` [Example IX-4, 3-(5-Bromo-2-methoxy-benzenesulfonylamino)-quinoline-6-carboxylic Acid methyl ester], below 100 nM. For `COc1ccc(Br)cc1S(=O)(=O)Nc1cnc2ccc(C(=O)O)cc2c1` [Example IX-5, 3-(5-Bromo-2-methoxy-benzenesulfonylamino)-quinoline-6-carboxylic Acid] the value was 100 to 1000 nM; for `COc1ccc(Br)cc1S(=O)(=O)Nc1cnc2ccc(C(N)=O)cc2c1` [Example IX-6, 3-(5-Bromo-2-methoxy-benzenesulfonylamino)-quinoline-6-carboxylic Acid Amide], below 100 nM. Then `CNC(=O)c1ccc2ncc(NS(=O)(=O)c3cc(Br)ccc3OC)cc2c1` [Example IX-7, 3-(5-Bromo-2-methoxy-benzenesulfonylamino)-quinoline-6-carboxylic Acid Methylamide], with below 100 nM. `COC(=O)c1ccc2ncc(NS(=O)(=O)c3cc(OC)ccc3OC)cc2c1` [Example IX-8, 3-(2,5-Dimethoxy-benzenesulfonylamino)-quinoline-6-carboxylic Acid Methyl Ester] yielded a half-inhibitory concentration (IC50) of 100 to 1000 nM. `COc1ccc(OC)c(S(=O)(=O)Nc2cnc3ccc(C(=O)O)cc3c2)c1` [Example IX-9, 3-(2,5-Dimethoxy-benzenesulfonylamino)-quinoline-6-carboxylic Acid] gave an IC50 above 1000 nM. Then `COc1ccc(OC)c(S(=O)(=O)Nc2cnc3ccc(C(N)=O)cc3c2)c1` [Example IX-10, 3-(2,5-Dimethoxy-benzenesulfonylamino)-quinoline-6-carboxylic Acid Amide], with 100 to 1000 nM; and `CNC(=O)c1ccc2ncc(NS(=O)(=O)c3cc(OC)ccc3OC)cc2c1` [Example IX-11, 3-(2,5-Dimethoxy-benzenesulfonylamino)-quinoline-6-carboxylic Acid Methylamide], with 100 to 1000 nM. Then `CCCNC(=O)c1ccc2ncc(NS(=O)(=O)c3cc(OC)ccc3OC)cc2c1` [Example IX-12, 3-(2,5-Dimethoxy-benzenesulfonylamino)-quinoline-6-carboxylic Acid Propylamide], with below 100 nM.

The compound `COc1ccc(OC)c(S(=O)(=O)Nc2cnc3ccc(C(=O)NC4CC4)cc3c2)c1` [Example IX-13, 3-(2,5-Dimethoxy-benzenesulfonylamino)-quinoline-6-carboxylic Acid Cyclopropylamide] came in with a half-maximal inhibitory concentration (IC50) of 100 to 1000 nM. Then `COc1ccc(OC)c(S(=O)(=O)Nc2cnc3ccc(C(=O)NC4CCCCC4)cc3c2)c1` [Example IX-14, 3-(2,5-Dimethoxy-benzenesulfonylamino)-quinoline-6-carboxylic Acid Cyclohexylamide], with below 100 nM; and `COc1ccc(OC)c(S(=O)(=O)Nc2cnc3ccc(CN(C)C)cc3c2)c1` [Example IX-15], with 100 to 1000 nM. Then `COc1ccc(Br)cc1S(=O)(=O)Nc1ccsc1` [Example V-1, 5-Bromo-2-methoxy-N-(thiophen-3-yl)benzenesulfonamide], with above 1000 nM; and `COc1ccc(OC)c(S(=O)(=O)Nc2ccsc2)c1` [Example V-2, 2,5-Dimethoxy-N-(thiophen-3-yl)benzenesulfonamide], with above 1000 nM. Compound `COc1ccc(Br)cc1S(=O)(=O)Nc1ncco1` [Example V-3, 5-Bromo-2-methoxy-N-oxazol-2-yl-benzenesulfonamide] yielded an IC50 above 1000 nM. Then `COc1ccc(OC)c(S(=O)(=O)Nc2ncco2)c1` [Example V-4, 2,5-Dimethoxy-N-oxazol-2-yl-benzenesulfonamide], with above 1000 nM; and `COc1ccc(Br)cc1S(=O)(=O)Nc1cc(C)no1` [Example V-5, 5-Bromo-2-methoxy-N-(3-methyl-isoxazol-5-yl)-benzenesulfonamide], with 100 to 1000 nM; and `COc1ccc(OC)c(S(=O)(=O)Nc2cc(C)no2)c1` [Example V-6, 2,5-Dimethoxy-N-(3-methyl-isoxazol-5-yl)-benzenesulfonamide], with 100 to 1000 nM. `COc1ccc(Br)cc1S(=O)(=O)Nc1cc[nH]n1` [Example V-7, 5-Bromo-2-methoxy-N-(1H-pyrazol-3-yl)-benzenesulfonamide] yielded a half-maximal inhibitory concentration (IC50) above 1000 nM. Then `COc1ccc(OC)c(S(=O)(=O)Nc2cc[nH]n2)c1` [Example V-8, 2,5-Dimethoxy-N-(1H-pyrazol-3-yl)-benzenesulfonamide], with above 1000 nM; and `COc1ccc(Br)cc1S(=O)(=O)Nc1ccn(C)n1` [Example V-9, 5-Bromo-2-methoxy-N-(1-methyl-1H-pyrazol-3-yl)-benzenesulfonamide], with above 1000 nM; and `COc1ccc(OC)c(S(=O)(=O)Nc2ccn(C)n2)c1` [Example V-10, 2,5-Dimethoxy-N-(1-methyl-1H-pyrazol-3-yl)-benzenesulfonamide], with above 1000 nM. Then `COc1ccc(Br)cc1S(=O)(=O)Nc1ccnn1C` [Example V-11, 5-Bromo-2-methoxy-N-(2-methyl-2H-pyrazol-3-yl)-benzenesulfonamide], with above 1000 nM; and `COc1ccc(OC)c(S(=O)(=O)Nc2ccnn2C)c1` [Example V-12, 2,5-Dimethoxy-N-(2-methyl-2H-pyrazol-3-yl)-benzenesulfonamide], with above 1000 nM. `COc1ccc(Br)cc1S(=O)(=O)Nc1cc(C(F)(F)F)n(C)n1` [Example V-13, 5-Bromo-2-methoxy-N-(1-methyl-5-trifluoromethyl-1H-pyrazol-3-yl)-benzenesulfonamide] yielded an IC50 above 1000 nM. In turn, `COc1ccc(OC)c(S(=O)(=O)Nc2cc(C(F)(F)F)n(C)n2)c1` [Example V-14, 2,5-Dimethoxy-N-(1-methyl-5-trifluoromethyl-1H-pyrazol-3-yl)-benzenesulfonamide] showed an IC50 above 1000 nM. Then `COc1ccc(Br)cc1S(=O)(=O)Nc1nccs1` [Example V-15, 5-Bromo-2-methoxy-N-thiazol-2-yl-benzenesulfonamide], with above 1000 nM; and `COc1ccc(OC)c(S(=O)(=O)Nc2nccs2)c1` [Example V-16, 2,5-Dimethoxy-N-thiazol-2-yl-benzenesulfonamide], with above 1000 nM; and `COc1ccc(Br)cc1S(=O)(=O)Nc1nnc(C)s1` [Example V-17, 5-Bromo-2-methoxy-N-(5-methyl-[1,3,4]thiadiazol-2-yl)-benzenesulfonamide], with above 1000 nM.

Take `COc1ccc(OC)c(S(=O)(=O)Nc2nnc(C)s2)c1` [Example V-18, 2,5-Dimethoxy-N-(5-methyl-[1,3,4]thiadiazol-2-yl)-benzenesulfonamide]: the IC50 was above 1000 nM. For `COc1ccc(Br)cc1S(=O)(=O)Nc1nnc(C(F)(F)F)s1` [Example V-19, 5-Bromo-2-methoxy-N-(5-trifluoromethyl-[1,3,4]thiadiazol-2-yl)-benzenesulfonamide] the value was 100 to 1000 nM. Then `COc1ccc(OC)c(S(=O)(=O)Nc2nnc(C(F)(F)F)s2)c1` [Example V-20], with above 1000 nM.

`COc1ccc(Br)cc1S(=O)(=O)Nc1nnc(C)o1` [Example V-21, 5-Bromo-2-methoxy-N-(5-methyl-[1,3,4]oxadiazol-2-yl)-benzenesulfonamide] gave an IC50 above 1000 nM. For `COc1ccc(OC)c(S(=O)(=O)Nc2nnc(C)o2)c1` [Example V-22, 2,5-Dimethoxy-N-(5-methyl-[1,3,4]oxadiazol-2-yl)-benzenesulfonamide] the value was above 1000 nM; for `COc1ccc(OC)c(S(=O)(=O)Nc2cnccn2)c1` [Example V-23, 2,5-Dimethoxy-N-pyrazin-2-yl-benzenesulfonamide], above 1000 nM. Then `COc1ccc(Br)cc1S(=O)(=O)Nc1cccnn1` [Example V-24, 5-Bromo-2-methoxy-N-pyridazin-3-yl-benzenesulfonamide], with 100 to 1000 nM; and `COc1ccc(OC)c(S(=O)(=O)Nc2cccnn2)c1` [Example V-25, 2,5-Dimethoxy-N-pyridazin-3-yl-benzenesulfonamide], with above 1000 nM.

(Values after patent US10370333B2 (Sanford Burnham Prebys Medical Discovery Institute, priority 2012, dated 2019).)
